Measured values published in patent US8748466B2, “Isoxazole derivatives useful as antibacterial agents” (Pfizer Inc., priority 2011, dated 2014).
Converted amounts (≈) assume the structure as drawn. Like-named read-outs stand apart in the source and are kept apart here.

Experiments:
[1] = system: Pseudomonas aeruginosa UC12120 (mouse virulent); assay: MIC determination (CLSI), PA-UC12120; type: cell-based; conditions: UC12120, read-out: PA-UC12120 MIC
Description: (§1) The in vitro antibacterial activity of compounds described in the Examples was evaluated by minimum inhibitory concentration (MIC) testing according to Clinical and Laboratory Standards Institute (CLSI). See: Clinical and Laboratory Standards Institute. Methods for Dilution Antimicrobial Susceptibility Tests for Bacteria that Grow Aerobically; Approved Standard-Eighth Edition. CLSI document M7-A8 [ISBN 1-56238-689-1]. Clinical and Laboratory Standards Institute, 940 West Valley Road, Suite 1400, Wayne, Pa. 19087-1898 USA, 2006; also Clinical and Laboratory Standards Institute. Performance Standards for Antimicrobial Susceptibility Testing; Twentieth Informational Supplement. CLSI document M100-S20 [ISBN1-56238-716-2]. Clinical and Laboratory Standards Institute.
(§2) The MIC determination is a standard laboratory method for evaluating the antibacterial activity of a compound. The MIC represents the lowest drug concentration that inhibits visible growth of bacteria following overnight incubation. […] Typically, the drug concentration range is broken down into 2-fold increments (e.g., 0.06 μg/mL, 0.12 μg/mL. 0.25 μg/mL, 0.50 μg/mL, 1.0 μg/mL, etc.) and the various drug concentrations are all individually incubated overnight with approximately the same number of bacteria. The MIC is then determined by visually inspecting the drug effect at each concentration, and identifying the lowest drug concentration that has inhibited bacterial growth as compared to the drug free control. Typically, bacteria continue to grow at drug concentrations lower than the MIC and don't grow at concentrations at and above the MIC.
(§3) The MIC values described in Tables 4 and 5 below were derived from assays wherein each test compound was evaluated in duplicate. In cases where the duplicate values varied by 0-2-fold, the lower of the two values was reported below. Generally speaking, if the duplicate values varied by more than 2-fold, the assay was considered non-valid and was repeated until the variation between duplicate runs was 2-fold. In line with the CLSI guidelines referred to above, both control organisms and reference compounds were utilized in each MIC assay to provide proper quality control. MIC values generated with these control organisms and reference compounds were required to fall within a defined range for the assay to be considered valid and be included herein. Those skilled in the art will recognize that MIC values can and do vary from experiment to experiment. Generally speaking, it should be recognized that MIC values often vary +/−2-fold from experiment to experiment. While a single MIC is reported for each compound and each microorganism, the reader should not conclude that each compound was only tested once. Several of the compounds were subjected to multiple tests. The data reported in Tables 4 and 5 is reflective of the compound's relative activity and different MICs may have been generated on these occasions in line with the guidelines described above.
(§4) The following bacterial strains were used in these MIC determinations:
1) Pseudomonas aeruginosa UC12120 (mouse virulent) labeled as PA-UC12120 in Tables 4 and 5;

[2] = target: T1, Pseudomonas aeruginosa LpxC enzyme (Pseudomonas aeruginosa, UniProt P47205); assay: LpxC enzyme IC50 assay (PA LpxC enzyme IC50), BioTrove RapidFire mass spectrometry; type: biochemical
T1 construct: made in house; host or cells: E. coli
T1 sequence (P47205 1-303): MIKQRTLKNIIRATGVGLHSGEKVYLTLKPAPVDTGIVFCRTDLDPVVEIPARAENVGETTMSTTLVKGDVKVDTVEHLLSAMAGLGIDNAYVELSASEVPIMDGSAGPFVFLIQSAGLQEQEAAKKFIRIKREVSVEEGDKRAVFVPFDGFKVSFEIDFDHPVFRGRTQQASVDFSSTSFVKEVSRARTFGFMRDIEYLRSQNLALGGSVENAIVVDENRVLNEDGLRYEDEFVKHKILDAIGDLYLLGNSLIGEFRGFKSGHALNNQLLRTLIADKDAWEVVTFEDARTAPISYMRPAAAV
Description: In order to assess the compounds biological activity selected in vitro assays were conducted on selected compounds. One of the assays measured the compounds ability to disrupt the synthesis of lipopolysaccharide, LPS, which is a component of the outer membrane of Gram-negative bacteria. Disruption of this synthesis is lethal to the bacteria. The assay determined the compound's ability to inhibit LpxC, which is the first enzyme in the biosynthetic pathway for LPS (measured as IC50). Additionally, MICs (minimal inhibitory concentrations) were determined for several bacteria. The specific protocols are described below:
A) IC50 Assay LpxC Enzyme from P. aeruginosa Labeled as PA LpxC Enzyme IC50):
At the end of 1 hour, 5 ul of 1 N HCl was added to stop the enzyme reaction, the plates were centrifuged, and then processed with the BioTrove Rapidfire HTMS Mass Spectrometry System. A no-enzyme control was used in calculating the IC50 values from the percent conversion values.

[3] = system: Escherichia coli EC-1: VOGEL, mouse virulent; assay: MIC determination (CLSI), EC-1; type: cell-based; conditions: read-out: EC-1 MIC
Description: as §1, §2, §3, §4
2) Escherichia coli EC-1: VOGEL, mouse virulent labeled as EC-1 in Tables 4 and 5;

[4] = system: Acinetobacter baumannii/haemolyticus: Multidrug-resistant clinical isolate AB-3167; assay: MIC determination (CLSI), AB-3167; type: cell-based; conditions: overnight incubation, duplicate, lower of the two values reported
Description: as §1, §2, §3, §4
3) Acinetobacter baumannii/haemolyticus: Multidrug-resistant clinical isolate labeled as AB-3167 in Tables 4 and 5;

[5] = P. aeruginosa LpxC enzyme 0.1 nM, 25° C., 1 hour, pH 8.0, read-out: PA:IC50

| SMILES | MIC [1] | IC50 [2] | MIC [3] | MIC [4] | IC50 [2, 5] |
| --- | --- | --- | --- | --- | --- |
| COc1cccc(-c2cc(CC[C@](C)(C(=O)NO)S(C)(=O)=O)on2)c1F [Example 1, (2R)-4-[3-(2-Fluoro-3-methoxyphenyl)isoxazol-5-yl]-N-hydroxy-2-methyl-2-(methylsulfonyl)butanamide] | 2 µg/mL (≈ 5.18 µM) | 5.32 nM | 4 µg/mL (≈ 10.4 µM) | > 64 µg/mL | – |
| CC(CCc1cc(CCc2ccccc2)no1)(C(=O)NO)S(C)(=O)=O (racemic) [Example 39, N-hydroxy-2-methyl-2-(methylsulfonyl)-4-[3-(2-phenylethyl)isoxazol-5-yl]butanamide] | 4 µg/mL (≈ 10.9 µM) | – | 32 µg/mL (≈ 87.3 µM) | > 64 µg/mL | 9.8 nM |
| CC(CCc1cc(-c2ccc(Cl)c(Cl)c2)on1)(C(=O)NO)S(C)(=O)=O (racemic) [Example 20, 4-[5-(3,4-dichlorophenyl)isoxazol-3-yl]-N-hydroxy-2-methyl-2-(methylsulfonyl)butanamide] | 1 µg/mL (≈ 2.46 µM) | – | 4 µg/mL (≈ 9.82 µM) | 16 µg/mL (≈ 39.3 µM) | – |
| CCc1ccc(-c2cc(CCC(C)(C(=O)NO)S(C)(=O)=O)on2)s1 (racemic) [Example 7, 4-[3-(5-ethyl-2-thienyl)isoxazol-5-yl]-N-hydroxy-2-methyl-2-(methylsulfonyl)butanamide] | 0.5 µg/mL (≈ 1.34 µM) | – | 4 µg/mL (≈ 10.7 µM) | 64 µg/mL (≈ 172 µM) | 1.1 nM |
| CC(CCc1cc(-c2ccc(F)cc2F)on1)(C(=O)NO)S(C)(=O)=O (racemic) [Example 28, 4-[5-(2,4-difluorophenyl)isoxazol-3-yl]-N-hydroxy-2-methyl-2-(methylsulfonyl)butanamide] | – | – | – | – | 2.8 nM |
| CC(CCc1cc(-c2ccc(N3CCOCC3)c(F)c2)no1)(C(=O)NO)S(C)(=O)=O (racemic) [Example 48, 4-[3-(3-fluoro-4-morpholin-4-ylphenyl)isoxazol-5-yl]-N-hydroxy-2-methyl-2-(methylsulfonyl)butanamide] | 32 µg/mL (≈ 72.5 µM) | – | 32 µg/mL (≈ 72.5 µM) | > 64 µg/mL | 24.2 nM |
| Cc1cccc(-c2cc(CCC(C)(C(=O)NO)S(C)(=O)=O)no2)c1 (racemic) [Example 13, N-hydroxy-2-methyl-4-[5-(3-methylphenyl)isoxazol-3-yl]-2-(methylsulfonyl)butanamide] | 1 µg/mL (≈ 2.84 µM) | – | 32 µg/mL (≈ 90.8 µM) | 64 µg/mL (≈ 182 µM) | – |
| COc1ccccc1-c1cc(CCC(C)(C(=O)NO)S(C)(=O)=O)on1 (racemic) [Example 49, N-hydroxy-4-[3-(2-methoxyphenyl)isoxazol-5-yl]-2-methyl-2-(methylsulfonyl)butanamide] | 32 µg/mL (≈ 86.9 µM) | – | > 64 µg/mL | > 64 µg/mL | 42.4 nM |
| CC(CCc1cc(CCCCCCCCCO)on1)(C(=O)NO)S(C)(=O)=O (racemic) [Example 15, N-hydroxy-4-[5-(9-hydroxynonyl)isoxazol-3-yl]-2-methyl-2-(methylsulfonyl)butanamide] | 4 µg/mL (≈ 9.89 µM) | – | 16 µg/mL (≈ 39.6 µM) | > 64 µg/mL | – |
| COc1cccc(OC)c1-c1cc(CCC(C)(C(=O)NO)S(C)(=O)=O)no1 (racemic) [Example 24, 4-[5-(2,6-dimethoxyphenyl)isoxazol-3-yl]-N-hydroxy-2-methyl-2-(methylsulfonyl)butanamide] | > 64 µg/mL | – | > 64 µg/mL | > 64 µg/mL | > 100 nM |
| COc1cccc(-c2cc(CCC(C)(C(=O)NO)S(C)(=O)=O)no2)c1 (racemic) [Example 29, N-hydroxy-4-[5-(3-methoxyphenyl)isoxazol-3-yl]-2-methyl-2-(methylsulfonyl)butanamide] | 8 µg/mL (≈ 21.7 µM) | – | 64 µg/mL (≈ 174 µM) | > 64 µg/mL | – |
| CC(CCc1cc(-c2cnc3ccccc3c2)no1)(C(=O)NO)S(C)(=O)=O (racemic) [Example 40, N-hydroxy-2-methyl-2-(methylsulfonyl)-4-(3-quinolin-3-ylisoxazol-5-yl)butanamide] | – | – | – | – | 25.2 nM |
| COc1ccc(-c2cc(CC[C@](C)(C(=O)NO)S(C)(=O)=O)no2)c(F)c1 [Example 5, (2R)-4-[5-(2-fluoro-4-methoxyphenyl)isoxazol-3-yl]-N-hydroxy-2-methyl-2-(methylsulfonyl)butanamide] | 0.25 µg/mL (≈ 0.647 µM) | – | 4 µg/mL (≈ 10.4 µM) | > 64 µg/mL | – |
| COc1ccc(C(=O)NCc2cc(CCC(C)(C(=O)NO)S(C)(=O)=O)no2)cc1 (racemic) [Example 11, N-({3-[4-(hydroxyamino)-3-methyl-3-(methylsulfonyl)-4-oxobutyl]isoxazol-5-yl}methyl)-4-methoxybenzamide] | > 64 µg/mL | – | > 64 µg/mL | > 64 µg/mL | – |
| CC(CCc1cc(CN(CCOc2ccccc2)C2CC2)on1)(C(=O)NO)S(C)(=O)=O (racemic) [Example 18, 4-(5-{[cyclopropyl(2-phenoxyethyl)amino]methyl}isoxazol-3-yl)-N-hydroxy-2-methyl-2-(methylsulfonyl)butanamide] | > 64 µg/mL | – | > 64 µg/mL | > 64 µg/mL | – |
| CC(CCc1cc(-c2ccnc3ccccc23)no1)(C(=O)NO)S(C)(=O)=O (racemic) [Example 46, N-hydroxy-2-methyl-2-(methylsulfonyl)-4-(3-quinolin-4-ylisoxazol-5-yl)butanamide] | – | – | – | – | 5.4 nM |
| CC(CCc1cc(COc2ccc3c(c2)OCO3)on1)(C(=O)NO)S(C)(=O)=O (racemic) [Example 26, 4-{5-[(1,3-benzodioxol-5-yloxy)methyl]isoxazol-3-yl}-N-hydroxy-2-methyl-2-(methylsulfonyl)butanamide] | 4 µg/mL (≈ 9.7 µM) | – | 16 µg/mL (≈ 38.8 µM) | > 64 µg/mL | – |
| CC(CCc1cc(C(=O)NC2CCCCC2)no1)(C(=O)NO)S(C)(=O)=O (racemic) [Example 45, N-cyclohexyl-5-[4-(hydroxyamino)-3-methyl-3-(methylsulfonyl)-4-oxobutyl]isoxazole-3-carboxamide] | > 64 µg/mL | – | > 64 µg/mL | > 64 µg/mL | – |
| COc1cccc(-c2cc(CC[C@](C)(C(=O)NO)S(C)(=O)=O)no2)c1F [Example 2, (2R)-4-[5-(2-Fluoro-3-methoxyphenyl)isoxazol-3-yl]-N-hydroxy-2-methyl-2-(methylsulfonyl)butanamide] | 16 µg/mL (≈ 41.4 µM) | – | 16 µg/mL (≈ 41.4 µM) | 32 µg/mL (≈ 82.8 µM) | – |
| COc1ccccc1SCc1cc(CCC(C)(C(=O)NO)S(C)(=O)=O)no1 (racemic) [Example 19, N-hydroxy-4-(5-{[(2-methoxyphenyl)thio]methyl}isoxazol-3-yl)-2-methyl-2-(methylsulfonyl)butanamide] | 64 µg/mL (≈ 154 µM) | – | > 64 µg/mL | > 64 µg/mL | – |
| CC(CCc1cc(-c2ccc(F)cc2F)no1)(C(=O)NO)S(C)(=O)=O (racemic) [Example 50, 4-[3-(2,4-difluorophenyl)isoxazol-5-yl]-N-hydroxy-2-methyl-2-(methylsulfonyl)butanamide] | 1 µg/mL (≈ 2.67 µM) | – | 16 µg/mL (≈ 42.7 µM) | > 64 µg/mL | – |
